Literature values, collected in patent US20070178051A1, “STERILIZED NANOPARTICULATE GLUCOCORTICOSTEROID FORMULATIONS” (Elan Pharma International, Ltd., priority 2006, published 2007).

| solubility in water | solubility in chloroform (chloroform) | solubility in ethanol (ethanol) | solubility in heptane (heptane) | Compound |
| --- | --- | --- | --- | --- |
| practically insoluble | – | – | – | CCC(=O)O[C@]1(C(=O)SCF)[C@H](C)C[C@H]2[C@@H]3C[C@H](F)C4=CC(=O)C=C[C@]4(C)[C@@]3(F)[C@@H](O)C[C@@]21C [Fluticasone propionate, S-(fluoromethyl) 6a,9-difluoro-11b, 17-dihydroxy-16a-methyl-3-oxoandrosta-1,4-diene-17b-carbothioate, 17-propionate] |
| practically insoluble | freely soluble | sparingly soluble | practically insoluble | CCCC1O[C@@H]2C[C@H]3C4CCC5=CC(=O)C=CC5(C)[C@H]4[C@@H](O)CC3(C)C2(C(=O)CO)O1 (mixture of isomers) [Budesonide, (RS)-11,16,17,21-Tetrahydroxy-pregna-1,4-diene-3,20-dione cyclic 16,17-acetal with butraldehyde] |
